Data published in patent publication US10413535B2, “Pharmaceutical compositions comprising an integrin ALPHA4 antagonist for use in treating ocular inflammatory conditions” (AXEROVISION, INC., priority 2015, dated 2019).

Experiments:
[1] = system: C57BL/6 mice subjected to desiccating stress; experiment: Corneal OGD staining in murine desiccating stress model; format: in vivo, mouse; settings: topical bilateral 2 times per day, 5 days DS, vs vehicle (GW559090 1-30 mg/mL; Dex 0.1%)
Protocol: (§1) Female C57BL/6 mice, aged 6 to 8 weeks, were subjected to DS for 5 days (DS5) as described previously (de Paiva et al., 2006b; Niederkorn et al., 2006). Topical bilateral treatment with 1 eye drop per eye (2 μL volume) or subcutaneous injection (4 μL volume), 2 times per day, was initiated on day 1 concurrently with DS and continued through day 4. Treatment with the compound of formula I or dexamethasone phosphate 0.1% was compared to correspondingly treated vehicle controls. Mice were randomized to receive one of the test articles. Control mice were kept in a non-stressed (NS) environment maintained at 50-75% relative humidity without exposure to airflow or scopolamine and were not treated with test or control article. Treatment effects were assessed on corneal staining with Oregon Green Dextran (OGD); expression of inflammatory markers in ocular surface tissues by real time PCR; cell population analysis in draining cervical lymph nodes by FACS analysis; conjunctival T cell infiltration by immunohistochemistry.
On the morning of the 5th day, mice received one s.c. dose of scopolamine. Two hours later corneal staining was assessed using Oregon Green Dextran (OGD-488), which is a conjugated fluorescent dye of a 70 kDa molecular size (Invitrogen-Molecular Probes) as previously described (de Paiva et al., 2006b). The procedure consisted of instillation of 0.5 μL of OGD on the cornea using a glass capillary pipette, 1 minute before euthanasia. Mice were euthanized by inhalation of isoflurane gas followed by cervical dislocation. Eyes were then rinsed with 2 mL of BSS. Excess liquid was carefully blotted from the ocular surface with filter papers without touching the cornea. Digital pictures of both eyes were taken under 470 nm excitation and 488 nm emission wave lengths using a Nikon SMZ-1500 stereo microscope, with an exposure time of 2 seconds. Both eyes from each animal were evaluated; the right eye always first followed by the left eye. The mean intensity in the central cornea was evaluated from digital images using NIS Elements (version 3.0) by placing a fixed region of interest (a 2-mm diameter circle) on the central cornea. The mean intensity of the fluorescence was read by the software and stored in a database (Excel, Microsoft). This fluorescence measurement in the central ring was done independently by 2 masked observers, for each mouse eye. By the conclusion of the experiment, results were averaged from both observers using all data collected during all study weeks (Excel, Microsoft). Results are presented as geometric mean±95% confidence interval of gray levels.
Due to skewed distribution of OGD data, the analysis was done on the log 10 scale to make the data more normally distributed. Log 10 OGD data was averaged across two observers and the left and right eyes. The mixed effects ANOVA model included treatment group as a fixed effect and week as a random effect. 95% and 99% confidence intervals were constructed for the disease (5 day DS vs untreated group kept in separate vivarium) and compound treatment effects (treatment vs vehicle). As these comparisons were all pre-planned (comparing each treatment to its vehicle group), no adjustment was made for multiplicity. […] T cell density was calculated for each section and averaged across sections for each animal. […]

[2] = system: cells of draining cervical lymph nodes; experiment: Flow cytometry of draining cervical lymph nodes, desiccating stress 1 day; format: in vivo, mouse; settings: 1 day DS
Protocol: as §1
Cervical draining lymph nodes (CLN) were surgically excised, placed in a round culture plate with ˜8 mL of complete RPMI media and smashed between two frosted slides.
Single-cell suspensions of CLN from C57BL/6 mice, treated under DS conditions for 1 day, were prepared, centrifuged and sequentially filtered, as previously described (de Paiva et al., 2009a). Subsequently 1.0 mL of ACT solution was added for 30 seconds followed by 2.0 mL of complete RPMI. The cells were once again centrifuged and the supernatant aspirated. Cells were then re-suspended in 2.0 mL of complete RPMI and prepared for counting. Ten μL of Trypan Blue were used for counting and the cells were divided in tubes at 1×10^6 cells/mL. Subsequently, the cells were incubated on ice in 20 μL unconjugated anti-mouse CD16/CD32 (BD Pharmingen, San Diego, Calif.) followed by 80 μL of directly conjugated primary antibody or isotype. Finally the samples were washed with 1 mL PBS/1% FBS, centrifuged and re-suspend in 0.3 mL PBS/1% FBS containing 1:1000 of PI. The samples were stored at 4° C. until the analysis was performed with an A BD LSRII Benchtop cytometer. The data was analysed using BD Diva Software (BD Pharmingen) and FlowJo (TreeStar Inc).
Due to skewed distribution of OGD data, the analysis was done on the log 10 scale to make the data more normally distributed. Log 10 OGD data was averaged across two observers and the left and right eyes. The mixed effects ANOVA model included treatment group as a fixed effect and week as a random effect. 95% and 99% confidence intervals were constructed for the disease (5 day DS vs untreated group kept in separate vivarium) and compound treatment effects (treatment vs vehicle). As these comparisons were all pre-planned (comparing each treatment to its vehicle group), no adjustment was made for multiplicity. Log 10 scale treatment effect estimates and confidence limits were converted back to the original OGD scale, thus representing the estimate for the ratio of group geometric means and their confidence limits. For gene expression analysis, an unpaired T test was performed to compare drug and vehicle treatment. For flow cytometry analysis, a 2-way ANOVA with fixed treatment and random experiment effects was employed to test the treatment differences. The analysis was followed by Dunnett's multiple comparison procedure to compare each of the treatment groups with the vehicle group. T cell density was calculated for each section and averaged across sections for each animal. As the distribution of average cell density data was non-normal, it was analyzed by using non-parametric methods (Kruskal-Wallis procedure, followed by Dunn's multiple comparisons technique).
The draining CLN are an integral part of the immune cycle in DED (Pflugfelder et al., 2008; Schaumburg et al., 2011). […]

dry eye patients = settings: delivered topically; cited from earlier work
[3] = system: multiple sclerosis and Crohn's disease; settings: in vivo; cited from earlier work
[4] = topical treatment, vs vehicle (GW559090 30 mg/mL, 60 μg per eye; Dex 0.1%), listed as dexamethasone

In the case of `C[C@@H]1C[C@H]2[C@@H]3CCC4=CC(=O)C=C[C@]4(C)[C@@]3(F)[C@@H](O)C[C@]2(C)[C@@]1(O)C(=O)COP(=O)(O)O` [Dex, Dexamethasone phosphate, reference compound], the “OGD intensity score (corneal staining / corneal barrier disruption)” value [1] is reported as “significantly improved”, the “OGD intensity score (corneal staining / corneal barrier disruption)” value ([1]; listed as dexamethasone) is reported as “decreased” and the “CD4+ and CD8+ T cells in draining lymph nodes” value [2] is reported as “nor did treatment with the compound of formula I or dexamethasone decrease the number of T cells”. The “CD11c+ dendritic cells in draining cervical lymph nodes” value [2, 4] was “no significant effect”, the “CD11c+/MHC II+ dendritic cells in draining cervical lymph nodes” value [2, 4] was “no significant effect” and the “CD11c+ dendritic cells in draining cervical lymph nodes” value ([2]; topical treatment, vs vehicle (GW559090 30 mg/mL, 60 μg per eye; Dex 0.1%), listed as dexamethasone phosphate) was “Neither systemic treatment with the compound of formula I nor topical treatment with dexamethasone phosphate produced the same effect”.
In the case of `CS(=O)(=O)c1cccc(C[C@H](NC(=O)c2c(Cl)cc3c(c2Cl)CCN(C(=O)c2ccc4ccoc4c2)C3)C(=O)O)c1` [Lifitegrast, (2S)-2-[[2-(1-benzofuran-6-carbonyl)-5,7-dichloro-3,4-dihydro-1H-isoquinoline-6-carbonyl]amino]-3-(3-methylsulfonylphenyl)propanoic acid], the Corneal staining (dry eye patients) is given as “reduce” and the Symptoms (dry eye patients) is given as “improve”.
In the case of “Natalizumab: an antibody directed against the integrin α4 subunit”, the “Inflammation and clinical outcomes” value [3] is listed as “profoundly inhibit inflammation and improve clinical outcomes”.
